From article PMC3296825 (Nature medicine, 2012) come the findings set out here.

Experiment [1] has as its target fast skeletal troponin complex (Oryctolagus cuniculus, UniProt P02586+P02643). The experiment is described as follows: isothermal titration calorimetry. In kind it is binding. Background: In ITC the heat of successive injections is recorded.
The target in experiment [2] is slow skeletal troponin (Bos taurus, UniProt G3MYN5+P63315). As to the kind of experiment: isothermal titration calorimetry. The format is binding.

Sequence of fast skeletal troponin complex (P02586 2-160): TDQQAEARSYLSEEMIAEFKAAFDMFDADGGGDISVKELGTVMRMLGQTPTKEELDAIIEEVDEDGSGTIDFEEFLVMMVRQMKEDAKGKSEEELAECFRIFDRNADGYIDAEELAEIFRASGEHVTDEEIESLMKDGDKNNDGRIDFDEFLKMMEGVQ
Sequence of fast skeletal troponin complex (P02643 2-182): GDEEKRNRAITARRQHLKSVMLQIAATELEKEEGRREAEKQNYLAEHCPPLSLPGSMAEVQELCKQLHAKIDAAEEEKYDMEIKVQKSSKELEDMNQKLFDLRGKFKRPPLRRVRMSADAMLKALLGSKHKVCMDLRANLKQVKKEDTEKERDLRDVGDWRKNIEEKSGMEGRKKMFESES
Sequence of fast skeletal troponin complex (P02641 2-279 partner): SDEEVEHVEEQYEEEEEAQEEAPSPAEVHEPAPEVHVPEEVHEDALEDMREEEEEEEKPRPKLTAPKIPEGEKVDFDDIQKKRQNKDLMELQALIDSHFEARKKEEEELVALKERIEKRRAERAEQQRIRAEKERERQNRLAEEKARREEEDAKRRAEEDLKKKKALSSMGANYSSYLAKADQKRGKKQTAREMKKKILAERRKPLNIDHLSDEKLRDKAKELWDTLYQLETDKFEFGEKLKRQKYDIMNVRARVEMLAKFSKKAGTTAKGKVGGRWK

What is called Kd is the equilibrium constant for the complex coming apart. A high value points to lower affinity. Take `C#Cc1cnc2nc(O)n(C(CC)CC)c2n1` [CK-2017357]: the Kd in experiment [1] stood at 40 ± 6 nM; in experiment [2], 3.8 ± 0.7 µM.
